Key:
CYP2C8 = molecular target: T1, CYP2C8 (Homo sapiens, UniProt P10632); test: CYP450 reaction phenotyping in Supersomes, CYP2C8; type: in vitro ADME
T1 construct: purchased
Procedure: In Vitro CYP450 Reaction Phenotyping Study in Supersomes™ Over-Expressing Human CYP Enzymes
The CYPP450 enzymes involved in the Phase I metabolism of Compound 1 Form A were investigated in vitro. Compound 1 Form A was metabolized by CYP1A2, CYP2D6 and CYP3A4 and with T1/2 values of 64, 14, and 176 min, respectively, and CLint of 0.261, 0.984 and 0.0786 μL/min/pmol CYP, respectively. No evidence of Compound 1 metabolism by CYP2B6, CYP2C8, CYP2C9 and CYP2C19 was observed.

[1] = molecular target: aryl hydrocarbon receptor (AhR) (Homo sapiens, UniProt P35869); test: AhR receptor activation, human; type: in vitro ADME; conditions: at 30 μM
Chain of aryl hydrocarbon receptor (AhR) (P35869 11-848): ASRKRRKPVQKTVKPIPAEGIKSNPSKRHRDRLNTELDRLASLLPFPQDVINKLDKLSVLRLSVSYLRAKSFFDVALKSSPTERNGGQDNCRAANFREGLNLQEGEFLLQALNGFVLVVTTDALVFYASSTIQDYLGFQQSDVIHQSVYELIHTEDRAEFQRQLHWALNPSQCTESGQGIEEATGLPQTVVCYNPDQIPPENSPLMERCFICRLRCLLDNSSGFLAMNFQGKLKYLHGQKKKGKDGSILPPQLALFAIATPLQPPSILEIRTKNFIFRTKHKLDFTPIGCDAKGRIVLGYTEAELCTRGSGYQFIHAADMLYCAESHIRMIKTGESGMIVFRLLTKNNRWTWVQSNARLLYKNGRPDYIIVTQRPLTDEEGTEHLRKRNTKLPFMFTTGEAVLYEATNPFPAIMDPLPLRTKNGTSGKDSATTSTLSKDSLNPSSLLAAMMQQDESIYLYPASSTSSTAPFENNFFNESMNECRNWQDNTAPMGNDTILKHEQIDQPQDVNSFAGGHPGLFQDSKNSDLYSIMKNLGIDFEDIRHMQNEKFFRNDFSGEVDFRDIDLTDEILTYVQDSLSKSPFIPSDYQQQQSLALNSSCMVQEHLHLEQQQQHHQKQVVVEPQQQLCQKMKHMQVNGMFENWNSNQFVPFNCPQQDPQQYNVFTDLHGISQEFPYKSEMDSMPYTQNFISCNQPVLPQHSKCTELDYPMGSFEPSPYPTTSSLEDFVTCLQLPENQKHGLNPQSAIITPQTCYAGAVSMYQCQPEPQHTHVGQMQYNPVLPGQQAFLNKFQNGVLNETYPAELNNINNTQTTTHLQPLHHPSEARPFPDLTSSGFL
Source text: The objective of this study was to determine the human and rat pregnane X receptor (PXR) and human and rat aryl hydrocarbon receptor (AhR) receptor activation potential of Compound 1 Form A. The activation of PXR is a marker for induction of CYP3A4/5 and […] and the activation of AhR is a marker for induction of CYP1A.

[2] = Phase I open-label single ascending dose study; type: in vivo, healthy male and female participants; conditions: single oral doses 10-200 mg
Procedure: This was an open-label, single ascending doses (SAD) study in healthy male and female participants 50 to 80 years of age (inclusive) with no history of cognitive impairment to evaluate the safety of single oral doses of Compound 1.
Six cohorts of 6 participants each received a single oral dose of Compound 1 in the fasted state at the following dose levels: 10, 40, 70, 100, 150, and 200 mg and then were followed for 7 days; the starting dose of 10 mg was <10% of the 140 mg human equivalent dose (HED) of the rat NOAEL in the GLP 28-day rat study of 15 mg/kg.
Doses were administered in an inpatient setting where all participants were closely monitored prior to discharge on Day 3, with follow-up in-person visits occurring on Days 4 and 7 and a phone call to inquire about general health occurring on Day 5.
Compound 1 administration was carefully monitored within and between cohorts to ensure patient safety and determination of whether to open the next dose cohort was made after all participants in a given cohort had completed the study and all available clinical and safety data were reviewed by the Investigator, Medical Monitor, DSMB, and IND Sponsor.
Following study drug administration, vital signs were monitored every 1 hour for the first 8 hours and then every 3 hours until discharge on Day 3 and an ECG was performed at approximately 6, 24, and 48 hours after drug administration. In order to monitor for changes in consciousness, the Glasgow Coma Scale (GCS) was administered pre-dose and then every 2 hours for the first 8 hours and then every 3 hours until discharge on Day 3. In order to monitor for cognitive or psychiatric side effects, the MOCA, GDS, and NPIQ were administered prior to oral dose administration, again at approximately 6 hours post-dose (approximate peak concentration), and approximately 24 hours post-dose. Adverse events were monitored continuously. Blood was collected for safety laboratory studies prior to drug dose administration and on Days 2 and 3.

C57/BI6J mice = conditions: single 7.5 mg/kg dose; cited from earlier work

T1 sequence (P10632 whole entry): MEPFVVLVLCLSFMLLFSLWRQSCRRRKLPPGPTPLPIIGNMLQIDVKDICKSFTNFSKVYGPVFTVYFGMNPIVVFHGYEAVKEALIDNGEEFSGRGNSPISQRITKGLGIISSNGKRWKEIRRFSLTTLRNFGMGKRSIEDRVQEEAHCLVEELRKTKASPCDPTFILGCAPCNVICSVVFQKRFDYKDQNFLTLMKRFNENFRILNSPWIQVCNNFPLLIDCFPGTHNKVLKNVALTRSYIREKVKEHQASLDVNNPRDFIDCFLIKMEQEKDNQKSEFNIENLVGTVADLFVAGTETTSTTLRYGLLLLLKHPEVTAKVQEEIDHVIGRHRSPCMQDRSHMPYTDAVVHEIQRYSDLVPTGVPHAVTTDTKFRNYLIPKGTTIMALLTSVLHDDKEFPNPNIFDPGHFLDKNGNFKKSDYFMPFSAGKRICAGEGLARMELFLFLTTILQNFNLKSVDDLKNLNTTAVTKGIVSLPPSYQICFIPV

O=C1N[C@H](c2cncc(C#Cc3ccccc3)c2)[C@@H](c2ccccc2Cl)O1 [Compound 1, (4R,5R)-5-(2-chlorophenyl)-4-(5-(phenylethynyl)pyridin-3-yl)oxazolidin-2-one]
metabolism by CYP2C8 (CYP2C8): No evidence | AhR activation, % of the positive control [1]: 1.11% | mean maximum fold activation of AhR [1]: 1.78 fold | clinically significant changes in consciousness (GCS), cognitive or psychiatric side effects (MOCA, GDS, NPIQ) [2]: no evidence | intensity of TEAEs [2]: mild or moderate | deaths, SAEs, severe TEAEs ([2]; 36 participants): no deaths, SAEs, or severe TEAEs | number of TEAEs considered possibly related to treatment ([2]; 36 participants): 8 | tolerability ([2]; fasted, healthy participants 50 to 80 years): well tolerated | prevention of PAM-induced seizures, shown previously (C57/BI6J mice): prevents seizures
